Source: patent publication US5041567A, “Antibacterial monic acid derivatives” (Beecham Group plc, priority 1982, dated 1991)
≈ marks a conversion by molar mass, not a printed value.

Columns and labels:
E. coli NCTC 10418 = experiment: MIC against veterinary bacteria in vitro; conditions: Escherichia coli, NCTC10418, 18 h
Description: (§1) The activity of the compounds of the Examples against various veterinarily important bacteria, was assayed in vitro using two-fold serial dilutions in Diagnostic Sensitivity Test Agar inoculated with 10^4 organisms.

[1] = tested on: M. suipneumoniae NCTC 10110; experiment: MIC against mycoplasma in vitro; format: cell-based; conditions: Mesomycoplasma hyopneumoniae, NCTC10110, 144 h; M. suipneumoniae NCTC 10110; 6 days, 37° C.; read-out: MIC
Past. multocida PA2 = experiment: MIC against veterinary bacteria in vitro; conditions: Pasteurella multocida, PA2, 18 h
Description: as §1

[2] = tested on: M. suipneumoniae J2206/183^b; experiment: MIC against mycoplasma in vitro; format: cell-based; conditions: Mesomycoplasma hyopneumoniae, 144 h; M. suipneumoniae J2206/183^b; 6 days, 37° C.; read-out: MIC
Past. multocida PA1 = experiment: MIC against veterinary bacteria in vitro; conditions: Pasteurella multocida, PA1, 18 h
Description: as §1

M. suipneumoniae HK(2) = experiment: MIC against mycoplasma in vitro; format: cell-based; conditions: Mesomycoplasma hyopneumoniae, 144 h; M. suipneumoniae HK(2); 6 days, 37° C.; read-out: MIC
M. bovis NCTC 10131 = experiment: microbe, parasite or virus in culture; format: cell-based; conditions: NCTC10131, 144 h
[3] = tested on: Staph. aureus 152 (pen. sens); experiment: MIC against veterinary bacteria in vitro; conditions: Staphylococcus aureus, 18 h
Description: as §1

M. suipneumoniae JF 435 = experiment: MIC against mycoplasma in vitro; format: cell-based; conditions: Mesomycoplasma hyopneumoniae, JF435, 144 h
Strep. agalactiae SPA1 = experiment: MIC against veterinary bacteria in vitro; conditions: Streptococcus agalactiae, SPA1, 18 h
Description: as §1

[4] = tested on: M. bovigenitalium ATCC 14173; experiment: MIC against mycoplasma in vitro; format: cell-based; conditions: 144 h
M. suipneumoniae LABER = experiment: MIC against mycoplasma in vitro; format: cell-based; conditions: Mesomycoplasma hyopneumoniae, 144 h
Past. haemolytica PA5 = experiment: MIC against veterinary bacteria in vitro; conditions: Mannheimia haemolytica, PA5, 18 h
Description: as §1

Bord. bronchiseptica B09 = experiment: MIC against veterinary bacteria in vitro; conditions: Bordetella bronchiseptica, B09, 18 h
Description: as §1

M. pneumoniae ATCC 15492 = experiment: MIC against mycoplasma in vitro; format: cell-based; conditions: Mycoplasmoides pneumoniae, ATCC15492, 144 h; M. pneumoniae ATCC 15492; 6 days, 37° C.; read-out: MIC
[5] = tested on: M. hyosynoviae ATCC 25591; experiment: MIC against mycoplasma in vitro; format: cell-based; conditions: 144 h
Bord. bronchiseptica B08 = experiment: MIC against veterinary bacteria in vitro; conditions: Bordetella bronchiseptica, B08, 18 h
Description: as §1

Strep. dysgalactiae SPD1 = experiment: MIC against veterinary bacteria in vitro; conditions: Streptococcus dysgalactiae, SPD1, 18 h
Description: as §1

[6] = tested on: Corynebacterium pyogenes CY1; experiment: MIC against veterinary bacteria in vitro; conditions: CY1, 18 h
Description: as §1

[7] = tested on: Erysipelothrix rhusiopathiae NCTC 8163; experiment: MIC against veterinary bacteria in vitro; conditions: Erysipelothrix rhusiopathiae, NCTC8163, 18 h
Description: as §1

M. suipneumoniae MS 16 = experiment: MIC against mycoplasma in vitro; format: cell-based; conditions: Mesomycoplasma hyopneumoniae, MS16, 144 h
M. dispar NCTC 10125 = experiment: MIC against mycoplasma in vitro; format: cell-based; conditions: 144 h
M. suipneumoniae TAM 6N = experiment: MIC against mycoplasma in vitro; format: cell-based; conditions: Mesomycoplasma hyopneumoniae, TAM6N, 144 h; M. suipneumoniae TAM 6N; 6 days, 37° C.; read-out: MIC
Strep. uberis SPU1 = experiment: MIC against veterinary bacteria in vitro; conditions: Streptococcus uberis, SPU1, 18 h
Description: as §1

M. gallisepticum S6 = experiment: MIC against mycoplasma in vitro; format: cell-based; conditions: Mycoplasmoides gallisepticum, S6, 144 h
[8] = tested on: Staph. aureus B4 (pen. resistant); experiment: MIC against veterinary bacteria in vitro; conditions: Staphylococcus aureus, 18 h
Description: as §1

Staph. aureus Oxford = experiment: MIC against veterinary bacteria in vitro; conditions: Staphylococcus aureus, 18 h
Description: as §1

M. hyorhinis ATCC 25021 = experiment: MIC against mycoplasma in vitro; format: cell-based; conditions: Mesomycoplasma hyorhinis, ATCC25021, 144 h; M. hyorhinis ATCC 25021; 6 days, 37° C.; read-out: MIC
[9] = tested on: M. suipneumoniae ATCC 25095; experiment: MIC against mycoplasma in vitro; format: cell-based; conditions: Mesomycoplasma hyopneumoniae, ATCC25095, 144 h
B. subtilis ATCC 6633 = experiment: MIC against veterinary bacteria in vitro; conditions: Bacillus subtilis, ATCC6633, 18 h
Description: as §1

[10] = tested on: Strep. suis (group D) SPS11; experiment: MIC against veterinary bacteria in vitro; conditions: Streptococcus suis, 18 h
Description: as §1

S. typhimurium S18 = experiment: MIC against veterinary bacteria in vitro; conditions: Salmonella enterica, TYPHIMURIUM, 18 h
Description: as §1

M. suipneumoniae UCD 1 = experiment: MIC against mycoplasma in vitro; format: cell-based; conditions: Mesomycoplasma hyopneumoniae, UCD1, 144 h
M. hyorhinis ATCC 23234 = experiment: MIC against mycoplasma in vitro; format: cell-based; conditions: Mesomycoplasma hyorhinis, ATCC23234, 144 h; M. hyorhinis ATCC 23234; 6 days, 37° C.; read-out: MIC
S. dublin S7 = experiment: MIC against veterinary bacteria in vitro; conditions: Salmonella enterica, S7, 18 h
Description: as §1

E. coli E1 = experiment: MIC against veterinary bacteria in vitro; conditions: Escherichia coli, E1, 18 h
Description: as §1

M. suipneumoniae Str. 11 = experiment: MIC against mycoplasma in vitro; format: cell-based; conditions: Mesomycoplasma hyopneumoniae, STR.11, 144 h

SMILES: C/C(=C\c1ncc(-c2ccc(Br)s2)o1)C[C@@H]1OC[C@H](C[C@@H]2O[C@H]2[C@@H](C)[C@H](C)O)[C@@H](O)[C@H]1O [Example 28, 5-[2-(5-Bromo)-thienyl]-2-(1-normon-2-yl)oxazole A]
- MIC (E. coli NCTC 10418): > 80 µg/mL
- MIC [1]: 0.5 µg/mL (≈ 0.946 µM)
- MIC (Past. multocida PA2): 2.5 µg/mL (≈ 4.73 µM)
- MIC [2]: 0.5 µg/mL (≈ 0.946 µM)
- MIC (Past. multocida PA1): 20 µg/mL (≈ 37.8 µM)
- MIC (M. suipneumoniae HK(2)): 0.5 µg/mL (≈ 0.946 µM)
- MIC (M. bovis NCTC 10131): 0.05 µg/mL (≈ 0.0946 µM)
- MIC [3]: 0.312 µg/mL (≈ 0.59 µM)
- MIC (M. suipneumoniae JF 435): 1 µg/mL (≈ 1.89 µM)
- MIC (Strep. agalactiae SPA1): 1.25 µg/mL (≈ 2.37 µM)
- MIC [4]: 0.1 µg/mL (≈ 0.189 µM)
- MIC (M. suipneumoniae LABER): 0.25 µg/mL (≈ 0.473 µM)
- MIC (Past. haemolytica PA5): 80 µg/mL (≈ 151 µM)
- MIC (Bord. bronchiseptica B09): 20 µg/mL (≈ 37.8 µM)
- MIC (M. pneumoniae ATCC 15492): 5 µg/mL (≈ 9.46 µM)
- MIC [5]: 1 µg/mL (≈ 1.89 µM)
- MIC (Bord. bronchiseptica B08): 80 µg/mL (≈ 151 µM)
- MIC (Strep. dysgalactiae SPD1): 0.312 µg/mL (≈ 0.59 µM)
- MIC [6]: > 80 µg/mL
- MIC [7]: 40 µg/mL (≈ 75.7 µM)
- MIC (M. suipneumoniae MS 16): 0.25 µg/mL (≈ 0.473 µM)
- MIC (M. dispar NCTC 10125): 0.1 µg/mL (≈ 0.189 µM)
- MIC (M. suipneumoniae TAM 6N): 0.5 µg/mL (≈ 0.946 µM)
- MIC (Strep. uberis SPU1): < 0.039 µg/mL
- MIC (M. gallisepticum S6): 2.5 µg/mL (≈ 4.73 µM)
- MIC [8]: 0.156 µg/mL (≈ 0.295 µM)
- MIC (Staph. aureus Oxford): 0.625 µg/mL (≈ 1.18 µM)
- MIC (M. hyorhinis ATCC 25021): 0.5 µg/mL (≈ 0.946 µM)
- MIC [9]: 0.25 µg/mL (≈ 0.473 µM)
- MIC (B. subtilis ATCC 6633): 0.07 µg/mL (≈ 0.132 µM)
- MIC [10]: 10 µg/mL (≈ 18.9 µM)
- MIC (S. typhimurium S18): > 80 µg/mL
- MIC (M. suipneumoniae UCD 1): 0.25 µg/mL (≈ 0.473 µM)
- MIC (M. hyorhinis ATCC 23234): 0.5 µg/mL (≈ 0.946 µM)
- MIC (S. dublin S7): > 80 µg/mL
- MIC (E. coli E1): > 80 µg/mL
- MIC (M. suipneumoniae Str. 11): 0.25 µg/mL (≈ 0.473 µM)
